According to patent US6632797B2, “Method of treating angiogenesis” (priority 1996, dated 2003):

Assays:
[1] = tested on: Nerve growth factors (NGFA from Vipera lebetina Venom and NGFB from Mouse Submaxillary glands); test: Interaction between NGF and radioactive IP3, co-elution on Sephadex G-25 / Heparin-Sepharose columns; assay type: binding; conditions: co-elution from Sephadex G-25, 50 mM Hepes pH 7.4
Method: The mixture was incubated for 1 hour at 4° C.
This type of column fractionate substances according to molecular weight.
The incubate was loaded on the column and was eluted with 50 mM Hepes in fractions of 0.4 ml each.
To further determine the interaction, the fractions with radioactivity and UV-absorbance were loaded on a Heparin-Sepharose CL-6B column (Pharmacia Biotech, Sweden) (volume 25 ml, height 20 cm). […] Elution was performed with 50 mM Hepes, pH 7.4 and each fraction of 1 ml was collected for determination of radioactivity and UV absorbance. A peak with radioactivity but without UV absorption was loaded on a similar Sephadex G-25 column as described above and was eluted with the same type of buffer. Maximum radioactivity was obtained in fraction number 13 i.e. in this case the substance with radioactivity was more retained on the column.

[2] = biological target: T1, Fibroblast growth factor acidic (aFGF) (Homo sapiens, UniProt P05230); test: aFGF/Matrigel-induced swelling (tumor-like matrix) in nude mice; assay type: in vivo, BALBc nude mice; conditions: osmotic minipump, 0.4 g/ml, 14 days
T1 construct: purchased Sigma (USA)
T1 sequence (P05230 whole entry, species assumed): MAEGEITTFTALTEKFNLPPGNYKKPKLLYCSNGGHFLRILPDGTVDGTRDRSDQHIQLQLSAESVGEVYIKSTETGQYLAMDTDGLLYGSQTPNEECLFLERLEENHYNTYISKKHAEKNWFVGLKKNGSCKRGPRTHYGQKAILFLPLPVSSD
Method: Fibroblast growth factor acidic (aFGF) from Sigma (USA), was diluted in a buffer, RPMI-1640 (Life Technologies, UK). 25 μg of aFGF was diluted in 125 μl buffer and 50 μl was transferred to a small Eppendorf tube. 150 μl of Matrigel® basement membrane matrix from Becton and Dickinson (UK) was added to the tube and the content was thoroughly mixed for 60 minutes. All equipment was sterilized by irradiation or autoclaving (115° C. in 10 minutes) before use and all procedures were performed at 7° C. The mixture was kept in an icebath before the animal experiment.
Ten female, specific pathogen free BALBc nude mice with a weight of 18-22 g were maintained in autoclaved type III makrolon cages with filter tops in horizontal air flow cabinets in a barrier unit equipped with HEPA filters. Autoclaved bedding, irradiated feed and sterile filtered water was used. Temperature and humidity was kept constant at 22±2° C., 65±5 RH.
When fibroblast growth factor (FGF) and Matrigel® is mixed and inovulated to nude mice, developments of a swelling process ressembling tumor begin to develop.
A portion of the mixture of Matrigel® and a FGF was inoculated subcutaneously by a 23 G needle in the right flank of the mice. Two days before all mice were surgically prepared with osmotic minipumps (Alzet, model 2002).
To another group of five mice saline was administered as a control group.

[3] = biological target: bovine brain clathrin assembly protein-2 (AP-2); test: Binding to clathrin assembly protein-2, competition with tritiated inositoltetraphosphate; conditions: competition with 10 nM tritiated inositoltetraphosphate, on ice, ten minutes
Method: The binding assay was done in a total volume of 100 μl buffer containing […] Na HEPES pH 7.1, […], […], 5 mg/ml IgG, 10 nM tritiated inositoltetraphosphate and 1.46 μg of AP-2. […] Incubation was carried out on ice for a period of ten minutes and then the protein was co-precipitated with IgG using 5% (w/w) polyethylene glycol and pelleted by centrifugation at […] for 10 minutes. The supernatants were aspirated, the pellets were wasted with 0.2 ml water and resuspended in 0.2 ml water and transferred to scintillation vials. 5.0 ml of cyto scint fluid was added to each vial and the radioactivity was measured.

[4] = Binding constants to the polyamine spermine; assay type: physicochemical; conditions: 1:1:5 complex; 0.1 M N-tetramethylbromide at 25° C.
Method: The interaction between a polyamine, spermine and different triphosphorylated compounds were investigated in order to determin the binding constants. Spermine is a basic polyamine comprising domains of similar basicity to basic domains in growth factors. Spermine and the different phosphorylated compounds forms different complexes and the 1:1:5 complex was used as the complex for determination of binding constants.
The following binding constants, log Ks was determined in 0.1 M N-tetramethylbromide at 25° C.: […]

[5] = tested on: phosphatidyl inositol 3′ kinase (PI 3′-kinase); test: Interstitial fluid pressure (PIF) in rat hind paw, wortmannin-induced decrease; assay type: in vivo, Wistar Möller rats; conditions: 5 μg in 0.1 ml intravenous before wortmannin
Text: The enzyme phosphatidyl inositol 3′ kinase (PI 3′-kinase) is implicated in a number of growth factor induced responses such as mitogenesis, chemotaxis, membrane ruffling and the balance between osteoclasts and osteoblasts. Furthermore it is known that inactivation of PI 3′ kinase leads to increased oedema formation expressed as a decrease of interstitial fluid pressure (PIF) in animal models.
An inhibitor of PI 3′ kinase such as wortmannin renders a decrease of PIF as a consequence of inactivation of PI 3′ kinase.
The measurements were performed on female Wistar Möller rats (200-250 g), anesthetized with pentobarbital (50 mg/kg i.p.).
PIF was measured on the dorsal side of the hind paw with sharpened glass capillarier (tip diameter 2-7 μm) filled with 0.5 M NaCl coloured with Evans Blue and connected to a serve-controlled counter pressure system. The punctures were performed through intact skin using a stereomicroscope. The pipette-tip was located 0.3-0.5 mm below the skin. Pressure measurements were made 2.5-3.0 mm from the center of injection. The normal transcapillary pressure gradient is about 0.5 mm Hg.
Three sets of experiments were performed with six animals in each set.
In the first set of experiment the vehicle for wortmannin, DMSO diluted in saline, 5 μl, was injected subdermally using a chromatography syringe. […]

[6] = tested on: Wish tumour cells; test: Wish tumour cell-induced bone tumours on the calvaria of nude mice; assay type: in vivo; parameters: key: +: small and non-severe tumours; ++++: large and severe tumours; conditions: 120 mg/kg/day osmotic minipump for 14 days; individual animals
Method: The injection of a specific cell-line Wish tumour cells, induces proliferation of osteoblasts on the calvaria of nude mice leading to bone tumours.
Wish cells (American Type Culture Collection^R, ATCC (R) F-12784 25 CCL WITH×01166) were used for inocculation. Cells were grown on MEM supplemented with 15% FCS, 2% glutamine and streptomycin-penicillin/garamycin. Cells were grown as a monolayer and trypsinised and split in the ratio 1:3 to 1:4. All together 360 million cells were harvested and suspended in 7 ml for a final concentration of approximately 10 million cells per 0.2 ml.
The osmotic pumps with IP3 and saline respectively were implanted on the same day as the inocculation of Wish-cells were performed.
A 27 gauge needle on a 1 ml syringe was used for the injections of Wish-cells. The injection was done under the skin of the calvaria scratching the periosteum.
At day 13 all animals were given an intraperiotoneal injection of demeclocycline (Sigma Chemicals Co. St Louis). All animals were investigated regarding the occurrence of and size of tumours. The size of tumours were measured according to a scale from
+ which represents small and non-severe tumours to
++++ which represents large and severe tumours.

O=P(O)(O)OC1C(O)C(O)C(O)C(OP(=O)(O)O)C1OP(=O)(O)O [IP3, D-myo-inositol-1,2,6-trisphosphate]
interaction between NGF and IP3 [1]: strong interaction
volume of the formed matrix ([2]; Day 1): 150 mm^3
volume of the formed matrix ([2]; Day 4): 125 mm^3
volume of the formed matrix ([2]; Day 5): 90 mm^3
volume of the formed matrix ([2]; Day 6): 50 mm^3
volume of the formed matrix ([2]; Day 7): 50 mm^3
volume of the formed matrix ([2]; Day 8): 70 mm^3
volume of the formed matrix ([2]; Day 9): 70 mm^3
IC50 [3]: 600 ± 100 nM
log Ks [4]: 5.16
effect of pretreatment on wortmannin-induced decrease in PIF [5]: abolished decrease in PIF
Severeness of tumours [6]: ++++
